Assay in all cases: Z'-LYTE kinase panel
Common to all, as to type: biochemical

For one assay, the target named is T1, GRK4 (Homo sapiens, UniProt P32298).
T1 construct: purchased ThermoFisher (SelectScreen, Z'-LYTE)
Here is the method: (§1) Compounds 2, 3 and 5 were tested for activity against the 225 kinases in the ThermoFisher standard kinase panel. The standard Z′-LYTE assay protocol (ThermoFisher) was used to measure the percentage inhibition at 10 µM compound concentration (details are provided in the supporting information).

The next assay concerns the target T2, STK25 (YSK1) (Homo sapiens, UniProt O00506).
T2 construct: purchased ThermoFisher (SelectScreen, Z'-LYTE)
The procedure:
as §1

The next assay has as its target T3, ALK (Homo sapiens, UniProt Q9UM73).
T3 construct: purchased ThermoFisher (SelectScreen, Z'-LYTE)
Here is the method:
as §1

The next assay deals with T4, GRK6 (Homo sapiens, UniProt P43250).
T4 construct: purchased ThermoFisher (SelectScreen, Z'-LYTE)
T4 sequence (P43250 whole entry): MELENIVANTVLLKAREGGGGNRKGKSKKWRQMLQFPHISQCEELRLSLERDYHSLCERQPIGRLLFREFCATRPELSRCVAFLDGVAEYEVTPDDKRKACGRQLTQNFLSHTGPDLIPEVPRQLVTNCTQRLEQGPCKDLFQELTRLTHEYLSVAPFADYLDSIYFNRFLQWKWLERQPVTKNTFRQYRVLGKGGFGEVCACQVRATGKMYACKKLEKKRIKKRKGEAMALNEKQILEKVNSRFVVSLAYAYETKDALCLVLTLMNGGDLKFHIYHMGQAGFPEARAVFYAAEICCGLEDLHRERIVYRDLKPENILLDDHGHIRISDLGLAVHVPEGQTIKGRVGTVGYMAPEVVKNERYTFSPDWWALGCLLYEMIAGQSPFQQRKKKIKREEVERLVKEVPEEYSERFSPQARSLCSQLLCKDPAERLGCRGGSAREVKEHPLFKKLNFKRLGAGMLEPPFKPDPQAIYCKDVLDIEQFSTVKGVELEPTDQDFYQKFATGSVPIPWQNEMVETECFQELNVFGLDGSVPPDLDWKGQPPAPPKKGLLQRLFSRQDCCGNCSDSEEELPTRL
The procedure: as §1

The target in another assay is T5, PHKG1 (Homo sapiens, UniProt Q16816).
T5 construct: purchased ThermoFisher (SelectScreen, Z'-LYTE)
T5 sequence (Q16816 whole entry): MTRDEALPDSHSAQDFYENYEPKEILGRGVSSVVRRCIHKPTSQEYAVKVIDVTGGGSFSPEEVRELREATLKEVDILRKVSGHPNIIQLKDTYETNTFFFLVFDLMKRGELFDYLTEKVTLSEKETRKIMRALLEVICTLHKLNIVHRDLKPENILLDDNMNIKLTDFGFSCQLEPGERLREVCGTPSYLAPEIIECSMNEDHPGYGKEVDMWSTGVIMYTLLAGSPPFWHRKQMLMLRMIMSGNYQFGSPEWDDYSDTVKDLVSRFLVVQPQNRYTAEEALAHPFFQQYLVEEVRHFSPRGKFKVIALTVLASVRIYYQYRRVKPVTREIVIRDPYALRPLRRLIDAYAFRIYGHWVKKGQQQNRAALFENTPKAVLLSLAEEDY
The procedure: as §1

A further assay concerns the target T6, MARK4 (Homo sapiens, UniProt Q96L34).
T6 construct: purchased ThermoFisher (SelectScreen, Z'-LYTE)
T6 sequence (Q96L34 1-752): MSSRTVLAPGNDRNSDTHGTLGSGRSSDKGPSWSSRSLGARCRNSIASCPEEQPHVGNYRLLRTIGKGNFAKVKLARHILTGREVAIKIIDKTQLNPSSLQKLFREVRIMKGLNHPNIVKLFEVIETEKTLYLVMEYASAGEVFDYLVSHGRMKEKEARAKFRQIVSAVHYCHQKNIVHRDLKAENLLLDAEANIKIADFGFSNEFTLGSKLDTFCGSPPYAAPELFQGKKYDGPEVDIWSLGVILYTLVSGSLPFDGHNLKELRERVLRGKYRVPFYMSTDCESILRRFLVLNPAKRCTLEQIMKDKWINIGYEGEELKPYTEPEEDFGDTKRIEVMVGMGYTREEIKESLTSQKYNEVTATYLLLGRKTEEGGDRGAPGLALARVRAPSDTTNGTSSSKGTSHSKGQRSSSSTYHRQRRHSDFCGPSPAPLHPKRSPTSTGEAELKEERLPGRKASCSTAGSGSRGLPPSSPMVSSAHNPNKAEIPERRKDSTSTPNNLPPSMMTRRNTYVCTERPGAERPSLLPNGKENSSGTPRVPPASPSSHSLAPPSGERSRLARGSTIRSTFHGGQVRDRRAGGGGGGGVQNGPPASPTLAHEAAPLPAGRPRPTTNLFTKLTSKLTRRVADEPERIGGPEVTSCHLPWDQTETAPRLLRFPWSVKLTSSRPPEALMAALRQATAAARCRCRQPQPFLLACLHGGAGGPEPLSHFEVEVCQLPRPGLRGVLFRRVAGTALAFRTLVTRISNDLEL
The procedure: as §1

The next assay has as its target T7, INSR (Homo sapiens, UniProt P06213).
T7 construct: purchased ThermoFisher (SelectScreen, Z'-LYTE)
The procedure:
as §1

A further assay addresses T8, PRKD2 (PKD2) (Homo sapiens, UniProt Q9BZL6).
T8 construct: purchased ThermoFisher (SelectScreen, Z'-LYTE)
T8 sequence (Q9BZL6 1-878): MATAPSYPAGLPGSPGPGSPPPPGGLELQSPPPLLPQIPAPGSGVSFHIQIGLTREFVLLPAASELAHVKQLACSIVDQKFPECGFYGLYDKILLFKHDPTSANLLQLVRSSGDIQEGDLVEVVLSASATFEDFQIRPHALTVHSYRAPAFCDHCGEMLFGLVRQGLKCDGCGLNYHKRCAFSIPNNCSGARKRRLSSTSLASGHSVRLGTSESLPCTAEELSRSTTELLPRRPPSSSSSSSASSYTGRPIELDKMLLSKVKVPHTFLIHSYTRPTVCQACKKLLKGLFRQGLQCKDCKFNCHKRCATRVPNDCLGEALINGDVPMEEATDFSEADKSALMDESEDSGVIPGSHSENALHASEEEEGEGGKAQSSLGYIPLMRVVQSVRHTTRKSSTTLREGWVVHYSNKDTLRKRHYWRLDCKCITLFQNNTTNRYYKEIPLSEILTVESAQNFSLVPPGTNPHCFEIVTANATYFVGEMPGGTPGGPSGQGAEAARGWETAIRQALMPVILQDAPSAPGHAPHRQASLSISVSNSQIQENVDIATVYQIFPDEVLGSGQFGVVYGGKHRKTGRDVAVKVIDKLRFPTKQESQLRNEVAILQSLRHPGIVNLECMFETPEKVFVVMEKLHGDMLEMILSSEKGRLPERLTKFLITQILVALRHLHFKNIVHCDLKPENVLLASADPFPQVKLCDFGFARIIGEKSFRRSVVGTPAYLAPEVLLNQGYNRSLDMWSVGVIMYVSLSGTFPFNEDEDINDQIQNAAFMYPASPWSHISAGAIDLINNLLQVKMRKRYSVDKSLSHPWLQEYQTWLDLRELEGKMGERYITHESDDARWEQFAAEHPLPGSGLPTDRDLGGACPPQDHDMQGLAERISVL
The procedure: as §1

A further assay concerns the target T9, PAK3 (Homo sapiens, UniProt O75914).
T9 construct: purchased ThermoFisher (SelectScreen, Z'-LYTE)
The procedure: as §1

A further assay deals with T10, PHKG2 (Homo sapiens, UniProt P15735).
T10 construct: purchased ThermoFisher (SelectScreen, Z'-LYTE)
T10 sequence (P15735 1-406): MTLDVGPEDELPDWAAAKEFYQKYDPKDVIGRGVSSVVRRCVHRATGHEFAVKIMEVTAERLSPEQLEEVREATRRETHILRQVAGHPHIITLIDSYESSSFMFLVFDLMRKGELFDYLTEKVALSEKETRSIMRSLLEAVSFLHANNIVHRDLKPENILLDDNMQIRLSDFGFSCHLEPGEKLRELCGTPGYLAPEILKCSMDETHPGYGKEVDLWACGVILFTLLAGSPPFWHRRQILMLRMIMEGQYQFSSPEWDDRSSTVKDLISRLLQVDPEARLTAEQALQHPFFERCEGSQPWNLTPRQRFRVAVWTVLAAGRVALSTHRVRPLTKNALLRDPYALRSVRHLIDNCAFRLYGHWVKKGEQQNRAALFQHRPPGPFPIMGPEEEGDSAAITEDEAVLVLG
The procedure:
as §1

The inhibition is the drop in the measured response relative to a control, in per cent.

T9 sequence (O75914 whole entry): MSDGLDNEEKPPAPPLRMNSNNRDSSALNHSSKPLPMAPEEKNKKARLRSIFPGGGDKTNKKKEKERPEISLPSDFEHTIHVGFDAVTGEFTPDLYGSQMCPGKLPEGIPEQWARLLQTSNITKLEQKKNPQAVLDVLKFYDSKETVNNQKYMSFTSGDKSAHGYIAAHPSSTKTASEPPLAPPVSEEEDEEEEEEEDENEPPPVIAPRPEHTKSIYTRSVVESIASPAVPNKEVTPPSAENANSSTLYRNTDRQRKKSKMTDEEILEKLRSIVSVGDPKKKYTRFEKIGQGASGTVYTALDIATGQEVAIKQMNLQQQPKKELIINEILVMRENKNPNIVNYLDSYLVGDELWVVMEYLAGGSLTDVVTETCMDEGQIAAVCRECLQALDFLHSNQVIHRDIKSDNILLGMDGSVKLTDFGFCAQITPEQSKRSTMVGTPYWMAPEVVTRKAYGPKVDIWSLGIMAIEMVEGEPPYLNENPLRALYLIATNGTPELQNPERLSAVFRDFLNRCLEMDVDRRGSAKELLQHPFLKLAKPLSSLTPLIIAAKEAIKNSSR
T3 sequence (Q9UM73 19-1620): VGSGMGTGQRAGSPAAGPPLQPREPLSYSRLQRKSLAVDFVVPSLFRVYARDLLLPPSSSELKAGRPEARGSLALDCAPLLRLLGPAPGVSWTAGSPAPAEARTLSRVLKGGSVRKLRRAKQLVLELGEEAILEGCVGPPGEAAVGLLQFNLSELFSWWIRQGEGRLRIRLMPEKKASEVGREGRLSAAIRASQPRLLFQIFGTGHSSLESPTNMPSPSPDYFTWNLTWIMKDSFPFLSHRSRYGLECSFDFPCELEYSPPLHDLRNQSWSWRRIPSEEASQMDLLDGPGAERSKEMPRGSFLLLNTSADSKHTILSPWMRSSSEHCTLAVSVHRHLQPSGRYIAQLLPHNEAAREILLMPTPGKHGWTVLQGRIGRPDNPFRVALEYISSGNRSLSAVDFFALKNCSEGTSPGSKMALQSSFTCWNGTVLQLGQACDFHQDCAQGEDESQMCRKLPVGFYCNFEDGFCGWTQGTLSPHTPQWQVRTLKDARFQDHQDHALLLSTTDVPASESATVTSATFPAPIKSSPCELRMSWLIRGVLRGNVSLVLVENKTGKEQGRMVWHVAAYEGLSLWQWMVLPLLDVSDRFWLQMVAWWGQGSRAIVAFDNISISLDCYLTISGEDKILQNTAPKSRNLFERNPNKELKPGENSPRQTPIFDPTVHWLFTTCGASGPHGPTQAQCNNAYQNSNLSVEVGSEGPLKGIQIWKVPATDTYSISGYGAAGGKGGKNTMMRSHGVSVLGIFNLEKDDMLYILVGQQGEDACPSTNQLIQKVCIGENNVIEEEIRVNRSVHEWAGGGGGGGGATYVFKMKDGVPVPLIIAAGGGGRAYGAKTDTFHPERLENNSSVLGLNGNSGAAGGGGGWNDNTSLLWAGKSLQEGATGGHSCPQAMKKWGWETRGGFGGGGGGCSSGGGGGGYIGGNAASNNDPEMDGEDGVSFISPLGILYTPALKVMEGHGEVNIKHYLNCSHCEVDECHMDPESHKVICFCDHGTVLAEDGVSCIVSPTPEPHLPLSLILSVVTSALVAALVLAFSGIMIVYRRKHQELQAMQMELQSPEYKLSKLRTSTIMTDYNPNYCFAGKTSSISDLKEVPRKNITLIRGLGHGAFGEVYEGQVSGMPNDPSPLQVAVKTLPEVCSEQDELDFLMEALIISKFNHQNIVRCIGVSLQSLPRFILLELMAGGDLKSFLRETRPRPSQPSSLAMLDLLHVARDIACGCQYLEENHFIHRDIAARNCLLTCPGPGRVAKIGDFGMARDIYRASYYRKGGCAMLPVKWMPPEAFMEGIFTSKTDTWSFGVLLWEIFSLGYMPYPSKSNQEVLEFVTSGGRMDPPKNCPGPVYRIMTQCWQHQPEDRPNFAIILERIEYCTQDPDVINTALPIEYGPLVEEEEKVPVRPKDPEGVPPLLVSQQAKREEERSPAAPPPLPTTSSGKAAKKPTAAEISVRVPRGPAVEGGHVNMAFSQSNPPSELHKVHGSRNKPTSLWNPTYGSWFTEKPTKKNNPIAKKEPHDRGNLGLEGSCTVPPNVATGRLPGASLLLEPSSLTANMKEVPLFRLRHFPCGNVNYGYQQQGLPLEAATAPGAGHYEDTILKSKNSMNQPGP
T1 sequence (P32298 whole entry): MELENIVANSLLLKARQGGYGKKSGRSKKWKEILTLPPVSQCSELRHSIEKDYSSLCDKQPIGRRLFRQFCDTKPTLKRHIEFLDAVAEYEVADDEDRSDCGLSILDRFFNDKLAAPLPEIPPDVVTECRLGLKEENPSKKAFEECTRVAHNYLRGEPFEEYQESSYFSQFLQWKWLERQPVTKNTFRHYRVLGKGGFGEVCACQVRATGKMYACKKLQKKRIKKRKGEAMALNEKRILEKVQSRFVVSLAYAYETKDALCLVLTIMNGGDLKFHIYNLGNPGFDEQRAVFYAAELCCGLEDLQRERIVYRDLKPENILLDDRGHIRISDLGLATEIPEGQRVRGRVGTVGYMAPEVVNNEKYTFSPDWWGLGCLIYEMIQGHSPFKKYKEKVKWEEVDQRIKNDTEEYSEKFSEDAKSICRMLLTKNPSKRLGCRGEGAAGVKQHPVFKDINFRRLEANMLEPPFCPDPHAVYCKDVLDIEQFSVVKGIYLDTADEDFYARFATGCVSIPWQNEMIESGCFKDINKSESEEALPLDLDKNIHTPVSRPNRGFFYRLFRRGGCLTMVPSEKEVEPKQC
T2 sequence (O00506 whole entry): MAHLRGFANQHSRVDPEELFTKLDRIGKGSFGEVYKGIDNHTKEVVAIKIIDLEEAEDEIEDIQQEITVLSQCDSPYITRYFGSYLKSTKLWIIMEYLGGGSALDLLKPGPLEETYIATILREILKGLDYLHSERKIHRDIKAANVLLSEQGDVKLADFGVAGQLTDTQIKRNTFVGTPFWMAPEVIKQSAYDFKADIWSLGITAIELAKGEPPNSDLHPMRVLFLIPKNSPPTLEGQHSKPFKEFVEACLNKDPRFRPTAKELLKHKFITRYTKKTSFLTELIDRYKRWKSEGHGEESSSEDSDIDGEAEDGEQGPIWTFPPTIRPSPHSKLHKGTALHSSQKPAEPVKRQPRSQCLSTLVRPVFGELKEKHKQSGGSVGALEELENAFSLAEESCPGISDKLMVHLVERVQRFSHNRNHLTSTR

Consider “XMD8-92 [Compound 2, reference compound]”, for which the “GRK4 % Inhibition” value at GRK4 (10 µM compound, ATP Km app) worked out at 93%. Further, at STK25 (YSK1) (10 µM compound, ATP Km app), the “STK25 (YSK1) % Inhibition” value is recorded as 9.49%. Besides, the “ALK % Inhibition” value at ALK (10 µM compound, ATP Km app) was 16%. Also, the “GRK6 % Inhibition” value at GRK6 (10 µM compound, ATP Km app) is on record as 1.47%. Further, the “PHKG1 % Inhibition” value on PHKG1 (10 µM compound, ATP Km app) turned out to be 12%. The “MARK4 % Inhibition” value at MARK4 (10 µM compound, ATP Km app) was found to be 37%. Besides, the “INSR % Inhibition” value at INSR (10 µM compound, ATP Km app) amounted to 4%. Moreover, on PRKD2 (PKD2) (10 µM compound, ATP Km app), the “PRKD2 (PKD2) % Inhibition” value is given as 21%. Further, the “PAK3 % Inhibition” value on PAK3 (10 µM compound, ATP Km app) was found to be 71%. Moreover, the “PHKG2 % Inhibition” value on PHKG2 (10 µM compound, ATP Km app) came out at 19%.
In the case of `Cc1cc(Nc2nc(N)nn2C(=O)NC(C)C)ccc1Cl` [Compound 5], the inhibition at 10 µM against GRK4 was 7%; against STK25 (YSK1), 12%; against ALK, 20%; against GRK6, -0.556%; on PHKG1 it was -5.38%; against MARK4, 2.34%. Further, the inhibition at 10 µM against INSR is 5.44%; against PRKD2 (PKD2), 9%; against PAK3, -12%; at PHKG2, -2.57%.
For the compound `Cc1ncc(-c2nc(Nc3ccc(C(=O)NCCN4CCCCC4)cc3)ncc2F)n1C(C)C` [Compound 3], the inhibition at 10 µM came out at 41% against GRK4; 72% at STK25 (YSK1); 78% at ALK; 53% against GRK6; 100% against PHKG1; 62% against MARK4. Also, the inhibition at 10 µM came out at 69% against INSR, 95% against PRKD2 (PKD2), 37% at PAK3 and 79% against PHKG2.

These data come from paper PMC4854315, “Discovery of a novel allosteric inhibitor-binding site in ERK5: comparison with the canonical kinase hinge ATP-binding site” (Acta Crystallographica. Section D, Structural Biology, 2016).
